Here are results for 6 compounds from patent US6900193B1, “Structural modification of 19-norprogesterone I: 17-α-substituted-11-β-substituted-4-aryl and 21-substituted 19-norpregnadienedione as new antiprogestational agents” (The United States of America as represented by the …, priority 1996, dated 2005).

Assay [1] has as its system progesterone-induced endometrial proliferation. As to the kind of experiment: AntiMcGinty test. Format: in vivo, rabbit. The settings on record: for ANTIPROGESTATIONAL Anti-McGinty: relative potency, CDB-2914 = 100 (assigned), intraluminal, rabbit. How it is done:
AntiMcGinty Test (McGinty, et al., Endocrinology, 24:829-832 (1939))
Immature female rabbits of the New Zealand White breed (approx. 1 kg body weight) were maintained under standard laboratory conditions and received a subcutaneous injection of 5 μg estradiol in 10% ethanol/sesame oil daily for 6 consecutive days. Twenty-four hours after the last injection of estradiol (day 7) animals underwent sterile abdominal surgery to ligate a 3-4 cm segment of both uterine horns. The experimental compound in appropriate solvent (usually 10% ethanol/sesame oil) was injected intraluminally into the ligated segment of one uterine horn and the vehicle alone into the ligated segment of the contralateral horn. Injection volume was limited to 0.1 ml, and care was taken to prevent leakage. A stimulating dose of progesterone (0.8 mg/day) was administered subcutaneously to each rabbit daily for the next three days (days 7, 8 and 9) for the purpose of inducing endometrial proliferation. All animals were sacrificed on day 10 when a segment central to the ligatures was removed and fixed in 10% neutral buffered formalin and submitted for histological processing. Five micron sections stained with hematoxylin and eosin (H&E) were evaluated microscopically for the degree of endometrial glandular proliferation according to the method of McPhail (McPhail, J. Physiol., 83:145 (1934). The percent inhibition of endometrial proliferation for each rabbit was calculated and the mean of the group of five animals recorded.

Assay [2] has as its target T1, progesterone receptor (estrogen-primed rabbit uterus) (Oryctolagus cuniculus, UniProt P06186).
T1 construct: preparation of cytosols for the progesterone and glucocorticoid receptor assays; from tissue; host or cells: uterus of estradiol-primed immature female New Zealand White rabbits (cytosol)
T1 sequence (P06186 1-930): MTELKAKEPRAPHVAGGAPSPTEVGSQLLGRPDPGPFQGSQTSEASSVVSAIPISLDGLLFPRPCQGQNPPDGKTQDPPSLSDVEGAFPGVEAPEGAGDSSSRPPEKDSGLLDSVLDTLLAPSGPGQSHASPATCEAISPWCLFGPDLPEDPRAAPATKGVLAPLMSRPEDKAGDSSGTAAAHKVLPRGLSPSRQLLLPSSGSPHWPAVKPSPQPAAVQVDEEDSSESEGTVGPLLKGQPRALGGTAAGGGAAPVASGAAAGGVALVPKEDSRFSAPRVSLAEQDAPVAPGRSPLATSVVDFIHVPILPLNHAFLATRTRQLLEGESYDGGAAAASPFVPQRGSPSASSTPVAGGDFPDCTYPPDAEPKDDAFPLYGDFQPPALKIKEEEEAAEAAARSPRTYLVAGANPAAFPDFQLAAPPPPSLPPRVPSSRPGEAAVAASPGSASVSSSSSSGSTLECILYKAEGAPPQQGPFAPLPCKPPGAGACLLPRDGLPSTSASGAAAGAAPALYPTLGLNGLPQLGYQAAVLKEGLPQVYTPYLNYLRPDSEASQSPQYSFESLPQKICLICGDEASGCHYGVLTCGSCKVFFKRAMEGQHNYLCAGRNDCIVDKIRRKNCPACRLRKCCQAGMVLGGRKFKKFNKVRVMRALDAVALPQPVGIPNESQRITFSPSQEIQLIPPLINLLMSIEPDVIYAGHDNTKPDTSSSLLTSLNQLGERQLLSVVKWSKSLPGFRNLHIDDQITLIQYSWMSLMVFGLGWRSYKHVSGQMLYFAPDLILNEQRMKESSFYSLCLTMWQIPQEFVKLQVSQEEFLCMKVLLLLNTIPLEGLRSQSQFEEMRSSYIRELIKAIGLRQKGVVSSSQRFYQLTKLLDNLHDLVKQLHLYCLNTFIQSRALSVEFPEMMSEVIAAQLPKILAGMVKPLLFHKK
As to the kind of experiment: Relative binding affinity, progesterone receptor. The settings on record: for RELATIVE BINDING AFFINITY Progesterone / BINDING AFFINITY Progester: estrogen-primed rabbit uterus, progesterone = 100%; for binding affinities compared with the standard, compound 69B: progesterone receptor implied (rabbit or human isoform A not specified); for BINDING AFFINITY Progester: Table 2. Here is the method: (§1) Relative Binding Affinities for the Progesterone and Glucocorticoid Receptors
(§2) Uteri and thymus glands were obtained from estradiol-primed immature female rabbits of the New Zealand White strain for preparation of cytosols for the progesterone and glucocorticoid receptor assays, respectively. Tissues were excised and immediately placed in ice cold TEGDM buffer (10 mM Tris, pH 7.4; 1.5 mM EDTA; 10% glycerol vol/vol/; 1 mM dithiothreitol [DTT]; and 20 mM sodium molybdate). The tissues were dissected free of connective tissue and fat, weighed and minced finely. Minced tissues were homogenized in 3 volumes TEGDM/gm with four 10 second bursts of a VirTis Cyclone set at half maximum speed with a 30 second cooling period (in ice) between bursts. Homogenates were centrifuged at 109,663 g at 4° C. for 1 hour to yield the soluble cytosol fiction. Aliquots of cytosol were snap frozen and stored at −75° C.
(§3) All binding assays were carried out at 2-6° C. for 16-18 hours. The following radioactive ligands were used: [1,2-^3H(N)]-progesterone (50.0 Ci/mmole) for the progesterone receptor (PR). […] For the progesterone receptor RBA assays 0.02 ml uterine cytosol or TEDGM buffer, 0.05 ml of various concentrations of test compounds or progesterone, 0.13 ml TEGDM buffer and 0.05 ml [^3H]-progesterone were added to duplicate tubes. For the glucocorticoid receptor RBA assays 0.1 ml thymus cytosol or TEDGM buffer, 0.05 ml of various concentrations of test compounds or dexamethasone, 0.05 ml TEGDM buffer and 0.05 ml [3H]-dexamethasone were added to duplicate tubes. For the estrogen receptor RBA assays 0.05 ml uterine cytosol, 0.1 ml TEGDM buffer, 0.05 ml of various concentrations of test compounds or estradiol and 0.05 ml [^3H]-estradiol were added to duplicate tubes. The concentrations of the test compounds, progesterone, dexamethasone and estradiol ranged from 0.05 to 100 nM and the concentrations of the competitors ranged from 0.5 to 500 nM. Total binding was measured at radioligand concentrations of 3.5 nM and nonspecific binding was measured in the presence of a 200-fold excess of unlabeled progesterone (PR), dexamethasone (GR) or diethylstilbestrol (ER), respectively.
(§4) In all incubations bound and free ligand were separated using dextra-coated charcoal (DCC). A 0.1 ml aliquot of DCC (0.5% charcoal/0.05% Dextran T-70) was added to each tube. The tubes were vortexed and incubated on ice for 10 minutes. Five-tenths ml TEG buffer (without DTT or molybdate) was then added to all tubes to improve supernatant recovery following centrifugation. The charcoal was pelleted by centrifugation at 2,100 g for 15 minutes at 4° C. The supernatants containing the [^3H]-steroid receptor complexes were decanted into vials containing 4 ml Optifluor (Packard Instrument Co.), vortexed, equilibrated in a liquid scintillation counter for 30 minutes and then counted for 2 minutes. This provided the quantity of receptor bound [^3H]-steroid at each competitor concentration.

Assay [3] has as its target T2, glucocorticoid receptor (estrogen-primed rabbit thymus) (Oryctolagus cuniculus, UniProt P59667).
T2 construct: preparation of cytosols for the progesterone and glucocorticoid receptor assays; from tissue; host or cells: thymus of estradiol-primed immature female New Zealand White rabbits (cytosol)
T2 sequence (P59667 1-772): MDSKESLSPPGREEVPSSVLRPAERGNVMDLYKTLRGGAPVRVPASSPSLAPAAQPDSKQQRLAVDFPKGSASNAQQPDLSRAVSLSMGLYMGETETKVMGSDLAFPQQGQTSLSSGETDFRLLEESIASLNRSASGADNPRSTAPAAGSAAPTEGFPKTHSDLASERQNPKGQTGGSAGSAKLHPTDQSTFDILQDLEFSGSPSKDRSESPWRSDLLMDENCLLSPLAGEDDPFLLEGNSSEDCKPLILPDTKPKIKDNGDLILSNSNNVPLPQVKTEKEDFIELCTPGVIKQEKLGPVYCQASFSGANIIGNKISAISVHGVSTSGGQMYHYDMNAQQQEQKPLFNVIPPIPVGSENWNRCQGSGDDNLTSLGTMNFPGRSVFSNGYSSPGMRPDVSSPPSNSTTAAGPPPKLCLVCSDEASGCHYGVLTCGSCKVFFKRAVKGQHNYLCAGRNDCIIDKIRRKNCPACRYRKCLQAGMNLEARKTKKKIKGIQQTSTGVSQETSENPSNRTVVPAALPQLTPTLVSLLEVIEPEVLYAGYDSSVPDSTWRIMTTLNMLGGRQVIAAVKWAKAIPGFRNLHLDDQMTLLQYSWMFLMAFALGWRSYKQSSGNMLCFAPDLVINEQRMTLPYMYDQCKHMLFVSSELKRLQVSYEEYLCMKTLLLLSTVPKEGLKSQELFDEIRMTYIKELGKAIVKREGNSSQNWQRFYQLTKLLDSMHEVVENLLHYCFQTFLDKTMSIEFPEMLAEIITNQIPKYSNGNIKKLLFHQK
In words: Relative binding affinity, glucocorticoid receptor. The settings on record: for RELATIVE BINDING AFFINITY Glucocorticoid / BINDING AFFINITY Glucocortic: estrogen-primed rabbit thymus, dexamethasone = 100%; for BINDING AFFINITY Glucocortic: Table 2. How it is done:
as §1, §2, §3, §4

Assay [4] concerns progesterone-induced endometrial proliferation. As to the kind of experiment: AntiClauberg test. Format: in vivo, rabbit. The following applies: oral; for BIOLOGICAL ACTIVITY antiClauberg: Table 2, CDB-2914 = 100 (assigned); for antiClauberg / oral antiprogestational activity, in words: versus the standard 69B. Here is the method: AntiClauberg Test (Clauberg, C., Zentr. Gynakol., 54:2757-2770 (1930)) Immature female rabbits of the New Zealand White breed (approx. 1 kg body weight) were maintained under standard laboratory conditions and received a subcutaneous injection of 5 μg estradiol in 10% ethanol/sesame oil daily for 6 consecutive days. Twenty-four hours after the last dose of estradiol (day 7) animals received progesterone by subcutaneous injection (0.8 mg/day) and the experimental compound in appropriate vehicle (usually 10% ethanol/sesame oil) orally or subcutaneously for five consecutive days. One group of rabbits received progesterone only. Twenty-four hours after the last dose all animals were sacrificed for removal of the uterus which was cleaned of all fat and connective tissue, weighed to the nearest 0.2 mg and placed in 10% neutral buffered formalin for subsequent histological processing. Five micron sections stained with hematoxylin and eosin (H&E) were evaluated microscopically for the degree of endometrial glandular proliferation according to the method of McPhail (McPhail, supra). The percent inhibition of endometrial proliferation at each dose level of the experimental compound was derived by comparison with the progesterone-stimulated animals alone.

With `CC(=O)O[C@]1(C(=O)CBr)CCC2C3CCC4=CC(=O)CCC4=C3C(c3ccc(N(C)C)cc3)C[C@@]21C` (stereo partly drawn) [Compound 14B, 17α-acetoxy-21-bromo-11β-[4-(N,N-dimethylamino)phenyl]-19-norpregna-4,9-diene-3,20-dione], the “antiprogestational activity compared with the lead compound / standard, in words” value in assay [1] (antiMcGinty (and antiClauberg), versus CDB-2914 (69B)) is “did not show significant differences”. Besides, in assay [1], the “ANTIPROGESTATIONAL Anti-McGinty” value was determined as 71. Moreover, in assay [2], the “RELATIVE BINDING AFFINITY Progesterone” value is recorded as 130% and the “binding affinities compared with the standard, compound 69B” value is given as “binding affinities greater than that observed for the standard”. Besides, the “binding affinity for the progesterone receptor, in words” value in assay [2] (rabbit uterine, versus CDB-2914 (69B) where stated) is given as “did not show significant differences”. For the same compound, the “RELATIVE BINDING AFFINITY Glucocorticoid” value in assay [3] is on record as 175%.

Regarding `CC(=O)SCC(=O)C1(O)CCC2C3CCC4=CC(=O)CCC4=C3C(c3ccc(N(C)C)cc3)CC21C` (stereo not shown) [Compound 16], the “ANTIPROGESTATIONAL Anti-McGinty” value in assay [1] was >2. Also, the “RELATIVE BINDING AFFINITY Progesterone” value in assay [2] is reported as 6%. Further, the “RELATIVE BINDING AFFINITY Glucocorticoid” value in assay [3] was determined as 77%.

Consider `COC(=O)OCC(=O)C1(OC(C)=O)CCC2C3CCC4=CC(=O)CCC4=C3C(c3ccc(N(C)C)cc3)CC21C` (stereo not drawn) [Compound 126c, 17α-Acetoxy-21-hydroxy-11β-[4-(N,N-dimethylamino)phenyl]-19-norpregna-4,9-diene-3,20-dione-21-methyl carbonate], for which, in assay [4], the “BIOLOGICAL ACTIVITY antiClauberg” value came to 224 and the “antiClauberg / oral antiprogestational activity, in words” value is “greater activity than the standard”. Besides, the “BINDING AFFINITY Progester” value in assay [2] is reported as 68%. In addition, in assay [3], the “BINDING AFFINITY Glucocortic” value amounted to 67%.

With `C=COCC(=O)[C@@]1(OC(C)=O)CCC2C3CCC4=CC(=O)CCC4=C3C(c3ccc(N(C)C)cc3)C[C@@]21C` (stereo partly drawn) [Compound 129, 17α-Acetoxy-11β-[4-(N,N-dimethylamino)phenyl]-21-(1′-ethenyloxy)-19-norpregna-4,9-diene-3,20-dione], in assay [4], the “BIOLOGICAL ACTIVITY antiClauberg” value amounted to 303 and the “antiClauberg / oral antiprogestational activity, in words” value is recorded as “greater activity than the standard”. In assay [2], the “BINDING AFFINITY Progester” value is recorded as 155% and the “binding affinities compared with the standard, compound 69B” value is “binding affinities greater than that observed for the standard”. Besides, the “BINDING AFFINITY Glucocortic” value in assay [3] came to 20%. Besides, the “binding affinity for the glucocorticoid receptor, in words” value in assay [3] (rabbit thymus, versus CDB-2914 (69B) where stated) is listed as “low binding affinity”.

As to `CC(=O)O[C@]1(C(=O)COC(=O)CN(C)C)CC[C@H]2[C@@H]3CCC4=CC(=O)CCC4=C3[C@@H](c3ccc(N(C)C)cc3)C[C@@]21C` [Compound 133, 17α-Acetoxy-1-[4-(N,N-dimethylamino)phenyl]-21-(2′-N,N-dimethylamino)acetoxy-19-norpregna-4,9-diene-3,20-dione], in assay [4], the “BIOLOGICAL ACTIVITY antiClauberg” value is 95. For the same compound, the “BINDING AFFINITY Progester” value in assay [2] is given as 82%. Also, the “BINDING AFFINITY Glucocortic” value in assay [3] is reported as 13%.

As to `CN(C)c1ccc([C@H]2C[C@@]3(C)[C@@H](CC[C@]3(OC=O)C(=O)COC=O)[C@@H]3CCC4=CC(=O)CCC4=C32)cc1` [Compound 139, 17α,21-Diformyloxy-11β-[4-(N,N-dimethylamino)phenyl]-19-norpregna-4,9-diene-3,20-dione], the “BIOLOGICAL ACTIVITY antiClauberg” value in assay [4] was “inactive”. In addition, the “BINDING AFFINITY Progester” value in assay [2] is 30%. The “BINDING AFFINITY Glucocortic” value in assay [3] is reported as 79%.
